These are literature values, as cited in patent publication US10822295B2, “Menaquinol compositions and methods of treatment” (Epizon Pharma, Inc., priority 2018, dated 2020).

Series [1] concerns incidence of fractures. The settings on record: in vivo.
The subject of series [2] is normal blood coagulation. To be noted: compared to vitamin K1 and MK-4.
For series [3] the following is noted: compared to MK-4.

On to `CC(C)=CCC/C(C)=C/CC/C(C)=C/CC/C(C)=C/CC1=C(C)C(=O)c2ccccc2C1=O` [MK-4, menaquinone-4], for which the incidence of fractures result in series [1] was “decrease the incidence of fractures”.
For `CC(C)=CCC/C(C)=C/CC/C(C)=C/CC/C(C)=C/CC/C(C)=C/CC/C(C)=C/CC/C(C)=C/CC1=C(C)C(=O)c2ccccc2C1=O` [MK-7, menaquinone-7], the “effects on normal blood coagulation” value in series [2] is “greater and longer lasting”. Besides, the half-life in serum entry in series [3] is “long half-life”.
